Entries after “also recorded” stand apart in the source; their conditions may differ.

For one data set, the target named is T1, NET (h) (Homo sapiens, UniProt P23975).
T1 construct: expressed in transfected cells; host or cells: MDCK
The data set is described as follows: cell-based. The class given is cell-based. Conditions: human; nM; read-out: NET (h) in vitro functional uptake. The method, then: (§1) Functional activity of the compounds was determined in vitro in cellular assays using recombinant human cell lines.

The target of the next data set is T2, 5-HT (h) (Homo sapiens, UniProt P31645).
T2 construct: expressed in transfected cells; host or cells: HEK-293
T2 sequence (P31645 whole entry): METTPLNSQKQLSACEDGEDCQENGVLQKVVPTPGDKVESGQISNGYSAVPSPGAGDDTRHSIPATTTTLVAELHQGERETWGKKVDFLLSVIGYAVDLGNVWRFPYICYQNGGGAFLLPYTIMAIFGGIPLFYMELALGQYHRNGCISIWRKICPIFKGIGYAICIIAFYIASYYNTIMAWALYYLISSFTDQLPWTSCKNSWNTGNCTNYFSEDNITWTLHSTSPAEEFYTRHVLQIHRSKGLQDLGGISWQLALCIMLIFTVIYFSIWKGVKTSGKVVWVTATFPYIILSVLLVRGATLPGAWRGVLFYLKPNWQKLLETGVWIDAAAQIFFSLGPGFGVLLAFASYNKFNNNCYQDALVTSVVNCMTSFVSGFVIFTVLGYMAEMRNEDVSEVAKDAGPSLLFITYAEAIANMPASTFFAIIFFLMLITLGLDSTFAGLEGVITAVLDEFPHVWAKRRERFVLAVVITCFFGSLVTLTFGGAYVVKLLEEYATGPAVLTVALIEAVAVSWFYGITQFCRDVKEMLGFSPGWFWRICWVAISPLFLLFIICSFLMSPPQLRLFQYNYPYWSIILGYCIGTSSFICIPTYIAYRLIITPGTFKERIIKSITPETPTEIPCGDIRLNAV
The data set is described as follows: cell-based. The class given is cell-based. Conditions: human; nM; read-out: 5-HT (h) in vitro functional uptake. The procedure:
as §1

A further data set deals with T3, DAT (h) (Homo sapiens, UniProt Q01959).
T3 construct: expressed in transfected cells
T3 sequence (Q01959 whole entry): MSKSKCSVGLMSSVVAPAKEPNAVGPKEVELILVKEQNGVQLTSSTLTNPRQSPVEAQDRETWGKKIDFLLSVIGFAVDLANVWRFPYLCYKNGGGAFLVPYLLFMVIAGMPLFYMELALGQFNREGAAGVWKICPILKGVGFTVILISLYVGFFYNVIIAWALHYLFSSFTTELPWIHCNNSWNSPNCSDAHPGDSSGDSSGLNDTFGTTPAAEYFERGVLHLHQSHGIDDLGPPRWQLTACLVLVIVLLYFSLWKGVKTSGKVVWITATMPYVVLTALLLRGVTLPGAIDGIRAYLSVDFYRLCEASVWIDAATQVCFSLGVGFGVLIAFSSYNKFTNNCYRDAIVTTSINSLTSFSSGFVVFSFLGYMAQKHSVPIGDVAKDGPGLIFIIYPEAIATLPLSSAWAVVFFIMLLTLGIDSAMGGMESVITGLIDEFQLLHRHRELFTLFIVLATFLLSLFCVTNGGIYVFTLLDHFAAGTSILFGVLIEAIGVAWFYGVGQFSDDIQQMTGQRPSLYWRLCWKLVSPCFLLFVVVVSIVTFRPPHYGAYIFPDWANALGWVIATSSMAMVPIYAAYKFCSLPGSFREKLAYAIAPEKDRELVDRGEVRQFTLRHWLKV
Nature of the data set: cell-based. The format is cell-based. Conditions: human; nM; read-out: DAT (h) in vitro functional uptake. The method, then:
as §1

In a further data set the test system is Sprague-Dawley rats. The data set is described as follows: 7 day multidose oral dosing toxicology study. Conditions: for 7 day multidose oral toxicology, symptoms: Sprague-Dawley rats n = 6 (3M/3F). The format is in vivo, rat. The text has this:
The representative results are listed below in Table VI.

The test system of another data set is rat. Nature of the data set: acute single-dose toxicology in rat. Conditions: rat (n = 5), i.v., observed 72 hours. The class given is in vivo. The procedure: An in vivo evaluation was carried out to determine the maximum tolerated dose of numerous test compounds in rat. The compounds were administered i.v., and the animals were then observed for 72 hours.
Briefly, experimental rats, in groups of 5 animals, were administered with various doses of respective inhibitors (e.g. 30, 90, 120, and 200 mg/kg), and the observed toxicological effects were recorded.

The subject of another data set is rats. Nature of the data set: forced swim test (behavioral despair assay) in rats. The format is in vivo. Conditions: rat. The method, then: In vivo efficacy of several illustrative inhibitors of the instant invention, (1), (3), and (4), were measured using standard forced swim test model using rat. The objective of this study was to assess the antidepressant effects of test compounds in the behavioral despair assay in rats using a modification of a method described by Porsolt R. D. et al. in Behavioural despair in rats: a new model sensitive to antidepressant treatment, Eur. J. Pharmacol., 47: 379-391, 1978; Porsolt et al., Nature 266: 730-732, 1977; and Porsolt et al., in Psychopharmacology, Olivier, Mos, and Slangen (eds) Birkhäuser Verlag, Basel, pp. 137-159, 1991. Briefly, when mice (or rats) are forced to swim in a cylinder from which no escape is possible, they readily adopt a characteristic immobile posture and make no further attempts to escape except for small movements needed to keep floating. The immobility is considered by some to reflect a “depressive mood” (Porsolt et al., Nature 266: 730-732, 1977) in which animals cease to struggle to escape the aversive situation. The immobility induced by the procedure is influenced by a wide variety of antidepressants (Porsolt et al., in Psychopharmacology, Olivier, Mos, and Slangen (eds) Birkhauser Verlag, Basel, pp. 137-159, 1991) and has a good predictive validity in that it detects antidepressants with different mechanisms of action (TCAs, SSRIs, MAOIs, and other atypical ones). The test is sensitive to muscle-relaxant (benzodiazepines) and sedative (neuroleptics) effects, leading to enhanced immobility (Porsolt et al., supra).
In a typical experiment, animals are placed singly into a cylinder (e.g. 46×30 cm) containing fresh water at about 20° C. for 6 minutes. The activity (or immobility) of the animal is measured by an observer minute by minute. In more detail, the animals were preconditioned in a pretest session, where the rats were individually forced to swim inside a vertical plexiglass cylinder containing water maintained at 19-20° C. After 15 minutes in the water, they were allowed to dry for […] in a heated enclosure. Twenty-four hours later, the compounds were administered either intraperitoneally or orally to the animals. One hour after administration of the test compound, animals were put back into the cylinder containing water. The total duration of immobility was measured during the last 4 minutes of a 6 minute test.
The results are expressed as the percentage of variation of the total duration of immobility calculated from the mean value of the vehicle-treated group (% variation=[(immobility duration of vehicle−immobility duration of test compound)/(immobility duration of vehicle)]×100%).
In order to measure the in vivo efficacy of inhibiting DAT in rats using an inhibitor of the instant invention, one test inhibitor ((1), (3), or (4)) was injected i.p. as racemic mixtures of diastereomers into the animals, at various-doses (e.g. 7.5 and […]). Sibutramine (2.0 and 2.5 mg/kg), Bupropion (7.5 and 10 mg/kg), and Imipramine (30 mg/kg) were similarly administered as controls. […] Asterisks indicate highly statistical significant results.
A fourth inhibitor, (6) was administered p.o. as a racemic mixture of diastereomers at either 35 or 75 mg/kg. Sibutramine (5.0 and 3.75 mg/kg), Bupropion (30 and 40 mg/kg), and Imipramine (100 mg/kg) were similarly administered as controls.
Similarly, (1) was also administered p.o. as a racemic mixture of enriched (95:5) diastereomer at either 35 or 75 mg/kg. […]

T1 sequence (P23975 whole entry): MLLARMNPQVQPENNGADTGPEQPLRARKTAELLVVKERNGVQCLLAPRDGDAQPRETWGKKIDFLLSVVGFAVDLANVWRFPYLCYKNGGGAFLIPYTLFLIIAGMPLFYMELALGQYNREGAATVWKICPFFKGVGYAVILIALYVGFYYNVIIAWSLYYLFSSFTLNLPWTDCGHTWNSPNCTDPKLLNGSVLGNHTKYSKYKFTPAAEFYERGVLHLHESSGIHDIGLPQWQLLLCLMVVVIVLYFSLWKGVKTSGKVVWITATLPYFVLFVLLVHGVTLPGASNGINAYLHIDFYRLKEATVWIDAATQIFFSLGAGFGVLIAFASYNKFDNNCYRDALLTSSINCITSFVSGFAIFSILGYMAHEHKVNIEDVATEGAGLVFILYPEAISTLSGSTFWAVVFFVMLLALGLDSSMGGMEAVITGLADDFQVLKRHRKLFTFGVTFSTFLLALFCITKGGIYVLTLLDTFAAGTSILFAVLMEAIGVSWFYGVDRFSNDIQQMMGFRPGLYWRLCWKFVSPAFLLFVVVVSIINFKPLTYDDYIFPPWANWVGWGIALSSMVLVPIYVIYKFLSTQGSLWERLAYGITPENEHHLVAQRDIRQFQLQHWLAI

Consider `C[C@H]1CC[C@@H](COc2ccc(C(F)(F)F)cc2)CN1C[C@H](O)C1(c2ccc(Cl)cc2)CCC1` [(18), (R)-1-[1-(4-Chlorophenyl)cyclobutyl]-2-{(2S,5R)-2-methyl-5-[4-(trifluoromethyl)phenoxy]methyl}piperidin-1-ylethanol], for which the EC50 on NET (h) is 2 nM; at 5-HT (h), greater than 2000 nM; at DAT (h), 1 nM.

On to `C[C@@H]1CC[C@H](COc2ccc(C(F)(F)F)cc2)CN1C[C@@H](O)C1(c2ccc(Cl)cc2)CCC1` [(20), (S)-1-[1-(4-Chlorophenyl)cyclobutyl]-2-{(2R,5S)-2-methyl-5-[4-(trifluoromethyl)phenoxy]methyl}piperidin-1-ylethanol], for which the results for the EC50 at NET (h), at 5-HT (h) and on DAT (h) were 2 nM, 20 nM and 1 nM, respectively.

Regarding `CC(C)CC(N(C)C)C1(c2ccc(Cl)cc2)CCC1` (centres unmarked) [Sibutramine], the “7 day multidose oral toxicology, symptoms” value in the data set with Sprague-Dawley rats (oral 100 mg/kg/day, 100 mg/kg/day) is recorded as “decreased grip strength, depression”. Also, in the data set on Sprague-Dawley rats (oral 400 mg/kg/day, 400 mg/kg/day), the “7 day multidose oral toxicology, symptoms” value is reported as “convulsions; also recorded: Convulsions;”. For the same molecule, in the data set on Sprague-Dawley rats (n = 6, oral 200 mg/kg/day), the “7 day multidose oral toxicology, deaths” value amounted to 2 deaths and the “7 day multidose oral toxicology, self-mutilation (number of animals)” value is 6 self-mutilation.

As to `C[C@@H]1CC[C@@H](COc2ccc(C(F)(F)F)cc2)CN1C[C@@H](O)C1(c2ccc(Cl)cc2)CCC1` [(21), (S)-1-[1-(4-Chlorophenyl)cyclobutyl]-2-{(2R,5R)-2-methyl-5-[4-(trifluoromethyl)phenoxy]methyl}-piperidin-1-ylethanol], the results for the EC50 at NET (h), at 5-HT (h) and at DAT (h) were 5 nM, 10 nM and 1 nM, respectively.

For the molecule `CN[C@H](CC(C)C)C1(c2ccc(Cl)cc2)CCC1` [R-DMS, reference compound], the EC50 on NET (h) came to 300 nM; on 5-HT (h), 1500 nM; at DAT (h), 30 nM.

Consider `CC(C)C[C@@H](N)C1(c2ccc(Cl)cc2)CCC1` [R-DDMS, reference compound], for which the EC50 on NET (h) was determined as 200 nM; on 5-HT (h), 1500 nM; on DAT (h), 100 nM.

For the molecule `C[C@H]1CCN(CC2(c3ccc(Cl)cc3)CCC2)C[C@@H]1COc1ccc(C(F)(F)F)cc1` [(14), (3R,4S)-1-{[1-(4-Chlorophenyl)cyclobutyl]methyl}-4-methyl-3-{[4-(trifluoromethyl)phenoxy]methyl}piperidine], the EC50 on NET (h) is 150 nM; on 5-HT (h) it was greater than 2000 nM; on DAT (h), less than 1 nM.

As for `CC1C(COc2ccc(C(F)(F)F)cc2)CCCN1CC(O)C1(c2ccc(Cl)cc2)CCC1` (centres unmarked) [(6)], the “acute single dose toxicology, observed symptoms” value in the data set with rat (200 mg/kg) was “no observed symptoms”. Besides, in the data set with rats (p.o., 35 or 75 mg/kg), the “forced swim test efficacy versus commercial drugs (FIG. 2, FIG. 3)” value is “performed equally well, if not better, than the commercial drugs Sibutramine, Bupropion, and Imipramine”.

`C[C@H]1CC[C@@H](COc2ccc(C(F)(F)F)cc2)CN1CC1(c2ccc(Cl)cc2)CCC1` [(13), (2S,5R)-1-{[1-(4-Chlorophenyl)cyclobutyl]methyl}-2-methyl-5-{[4-(trifluoromethyl)phenoxy]methyl}piperidine]: the figures for the EC50 at NET (h), at 5-HT (h) and at DAT (h) were 100 nM, greater than 2000 nM and less than 1 nM, respectively.

Consider `C[C@@H]1[C@H](COc2ccc(C(F)(F)F)cc2)CCCN1CC(O)C1(c2ccc(Cl)cc2)CCC1` (some centres unmarked) [(6′)], for which the EC50 at NET (h) and at DAT (h) was 3 nM throughout.

As for `C[C@H]1CCN(CC2(c3ccc(Cl)cc3)CCC2)C[C@H]1COc1ccc(C(F)(F)F)cc1` [(16), (3S,4S)-1-{[1-(4-Chlorophenyl)cyclobutyl]methyl}-4-methyl-3-{[4-(trifluoromethyl)phenoxy]methyl}piperidine], the results for the EC50 at NET (h), at 5-HT (h) and on DAT (h) were 100 nM, greater than 2000 nM and less than 1 nM, respectively.

`C[C@@H]1CCN(CC2(c3ccc(Cl)cc3)CCC2)C[C@H]1COc1ccc(C(F)(F)F)cc1` [(15), (3S,4R)-1-{[1-(4-Chlorophenyl)cyclobutyl]methyl}-4-methyl-3-{[4-(trifluoromethyl)phenoxy]methyl}piperidine]: the EC50 at NET (h) was 350 nM; on 5-HT (h), greater than 2000 nM; on DAT (h), less than 1 nM.

With `C[C@@H]1CC[C@H](COc2ccc(C(F)(F)F)cc2)CN1C[C@H](O)C1(c2ccc(Cl)cc2)CCC1` [(19), (R)-1-[1-(4-Chlorophenyl)cyclobutyl]-2-{(2R,5S)-2-methyl-5-[4-(trifluoromethyl)phenoxy]methyl}piperidin-1-ylethanol], the EC50 on NET (h) was 9 nM; at 5-HT (h), greater than 2000 nM; on DAT (h), 1 nM.

On to `C[C@H]1CC[C@@H](COc2ccc(C(F)(F)F)cc2)CN1C[C@@H](O)C1(c2ccc(Cl)cc2)CCC1` [(17), (S)-1-[1-(4-Chlorophenyl)cyclobutyl]-2-{(2S,5R)-2-methyl-5-[4-(trifluoromethyl)phenoxy]methyl}piperidin-1-ylethanol], for which the EC50 is 5 nM at NET (h), greater than 2000 nM on 5-HT (h) and 1 nM at DAT (h).

In the case of `CC1CCC(COc2ccc(C(F)(F)F)cc2)CN1CC(O)C1(c2ccc(Cl)cc2)CCC1` (centres unmarked) [(4)], the “acute single dose toxicology, observed symptoms” value with rat (120 mg/kg) was “decreased grip strength and limb tone and convulsions”; in the data set with rat (200 mg/kg), “Convulsions”. In the data set with rats (i.p., racemic mixtures of diastereomers), the “forced swim test efficacy versus commercial drugs (FIG. 1)” value is “performed equally well, if not better, than the commercial drugs Sibutramine, Bupropion, and Imipramine”.

Values taken from patent US20100093706A1, “MULTIMEDIATOR TRANSPORTER INHIBITORS FOR USE IN TREATMENT OF CENTRAL NERVOUS SYSTEM DISORDERS” (priority 2006, published 2010).
